Data: paper PMC7037447, “Syntheses of L-Rhamnose-Linked Amino Glycerolipids and Their Cytotoxic Activities against Human Cancer Cells” (Molecules, 2020)
Like-named read-outs stand apart in the source and are kept apart here.

Key:
[1] = tested on: DU-145; assay: MTS cell viability assay, 48 h; format: cell-based, human; conditions: DU-145, 48 h
Protocol: (§1) The cells were incubated with increasing concentrations of the compounds (0–30 µM) for 48 h followed by assessment of cell viability using the MTS assay. […] This compound carries a primary amino group at the sn-3 position of the glycerolipid and L-rhamno sugar at the sn-2 position via an α-rhamnosidic linkage.
(§2) The cell lines were cultured from frozen stocks originally obtained from ATCC (Manassas, VA, USA). MDA-MB-231, JIMT-1, DU145, MDA-MB-468, Hs578t and MDA-MB-453 were grown in DMEM medium supplemented with 10% FBS. BT-474 cells were grown in DMEM/F12 medium supplemented with 10% FBS. MiaPaCa2 was cultured in DMEM supplemented with 10% FBS and 2.5% horse serum. All the media contained penicillin/streptomycin. U-251 and U-87 in Eagle MEM supplemented by 10% FBS, 1% Non-essential amino acids, 1 mM sodium pyruvate and 2 mM glutamine. BT-549 was cultured in RPMI 1640 medium supplemented with 10% FBS.
(§3) The effects of the GAELs on the viability of the epithelial cancer cell lines were determined as previously described. Briefly, equal numbers of the cells were dispersed into 96-well plates. After 24 h, the cells were incubated with the compounds (0–30 µM) for 48 h. MTS reagent [3-(4,5-dimethylthiazol-2-yl)-5-(3-carboxymethoxyphenyl)-2-(4-sulfophenyl)-2H-tetrazolium, inner salt; Promega, Madison, WI, USA] (20% v/v) was subsequently added and the plates were incubated for 1–4 h in a CO2 incubator followed by measurement of the medium at OD490 with a plate reader (Molecular Devices).

[2] = tested on: MiaPaCa2; assay: MTS cell viability assay, 48 h; format: cell-based, human
Protocol: as §1, §2, §3

[3] = tested on: PC-3; assay: MTS cell viability assay, 48 h; format: cell-based, human; conditions: PC-3, 48 h
Protocol: as §1
as §3, with “Devices). Wells with media but no cells were treated in similar fashion and the values utilized as blank.” for “Devices).”

[4] = tested on: MDA-MB-231; assay: MTS cell viability assay, 48 h; format: cell-based, human; conditions: MDA-MB-231, 48 h
Protocol: […] […] This compound carries a primary amino group at the sn-3 position of the glycerolipid and L-rhamno sugar at the sn-2 position via an α-rhamnosidic linkage.
as §2
as §3, with “After 24 h, the cells were incubated with the compounds (0–30 µM) for 48 h.” left out

[5] = tested on: human epithelial cancer cell lines: breast (MDA-MB-231, JIMT-1), pancreas (MiaPaCa2) and prostate (DU-145, PC-3); assay: MTS cell viability assay, 48 h, across the panel of cell lines; format: cell-based; conditions: for CC50: read-out: CC50 values across the cell lines; for Cytotoxicity against the cancer cells: highest dose tested 30 µM, data not shown
Protocol: as §1, §2
as §3, with “Devices). Wells with media but no cells were treated in similar fashion and the values utilized as blank.” for “Devices).”

[6] = tested on: JIMT-1; assay: MTS cell viability assay, 48 h; format: cell-based, human; conditions: JIMT-1, 48 h
Protocol: as §1, §2
as §3, with “Devices). Wells with media but no cells were treated in similar fashion and the values utilized as blank.” for “Devices).”

[7] = tested on: human epithelial cancer cell lines: breast (MDA-MB-231, JIMT-1), pancreas (MiaPaCa2) and prostate (DU-145, PC-3); design: method as in PMID 28177244; conditions: range over all cell lines; read-out: CC50 values across the cell lines; cited from earlier work
[8] = tested on: MiaPaCa2; design: method as in PMID 28177244; conditions: cited from earlier work
[9] = tested on: MDA-MB-231; design: method as in PMID 28177244; conditions: cited from earlier work
[10] = tested on: PC-3; design: method as in PMID 28177244; conditions: cited from earlier work
[11] = tested on: JIMT-1; design: method as in PMID 28177244; conditions: cited from earlier work
[12] = tested on: DU-145; design: method as in PMID 28177244; conditions: cited from earlier work
[13] = tested on: DU-145; assay: Cell membrane integrity, ethidium homodimer-1 (EthD-1) staining; format: cell-based; conditions: DU-145, 0.01%, 10 min
Protocol: (§4) After determining that the mechanism of cell death of compound 3 is independent of caspases-mediated apoptosis, we evaluated if cell death was due to membrane disruption or lysis using the cell impermeant ethidium homodimer-1 (EthD-1) dye that emits red fluorescence upon binding to DNA [13, 14]. DU-145 and JIMT-1 were treated with compound 3 at 10 and 15 µM, respectively. After 4–6 h, the cells were treated with EthD-1 dye and monitored under fluorescence microscopy.
(§5) Equal numbers of JIMT-1 and DU145 cells were dispersed into 96-well plates. After 24 h the cells were incubated with varying concentration of compounds 3 or 4 (4–6 µM) for 5–6 h. Subsequently, 2 µM of the cell membrane impermeant dye, ethidium homodimer-1 (EthD-1 (Molecular Probes, Eugene, OR, USA) that emits red fluorescence upon binding to DNA was added and the cells analysed by fluorescence microscopy. EthD-1 staining was compared to negative controls with no treatment and positive control treated with 0.01% Triton X-100 for 10 min.
(§6) Figure 5 Evaluation of effect of compound 3 on cell membrane of DU-145 and JIMT-1 cell lines using cell impermeant ethidium homodimer-1 (EthD-1) dye that emits red fluorescence upon binding to DNA.

[14] = tested on: JIMT-1; assay: as above; format: cell-based; conditions: JIMT-1, 0.01%, 10 min
Protocol: as §4, §5, §6

[15] = Homo sapiens, MTS, read-out: CC50
[16] = Homo sapiens, MIA PaCa-2, MiaPaCa2, 48 h, MTS, read-out: CC50
[17] = Homo sapiens, 48 h, range or bound over all cell lines, 48 h, MTS

**Q.** For “1-Hexadecyl-2R-methoxyl-3-O-α-L-rhamnopyranosyl-sn-glycerol [Compound 2]”, which CC50 ([1]; MTS, read-out: CC50) is on record?
**A.** 25 µM

**Q.** What about the CC50 ([2]; MiaPaCa2, 48 h, MTS, read-out: CC50) of the same compound?
**A.** > 30 µM

**Q.** What about the CC50 ([3]; MTS, read-out: CC50) of the same compound?
**A.** 25 µM

**Q.** What about the CC50 ([4]; MTS, concentration decreasing cell viability by 50% relative to untreated control, read-out: CC50) of the same compound?
**A.** 26 µM

**Q.** And the CC50 ([5]; range or bound over all cell lines, 48 h, MTS)?
**A.** ≥ 21.5 µM

**Q.** And the CC50 ([6]; MTS, read-out: CC50)?
**A.** 28 µM

**Q.** Which CC50 ([1]; Homo sapiens) does the source give for O=C(O)CCCc1ccc(N(CCCl)CCCl)cc1 [Chlorambucil, reference compound] here?
**A.** > 150 µM

**Q.** What about the CC50 ([2]; Homo sapiens, MIA PaCa-2, 48 h) of the same compound?
**A.** > 150 µM

**Q.** What about the CC50 ([3]; Homo sapiens) of the same compound?
**A.** > 150 µM

**Q.** And the CC50 ([4]; Homo sapiens)?
**A.** > 150 µM

**Q.** What about the CC50 ([5]; Homo sapiens, 48 h) of the same compound?
**A.** > 150 µM

**Q.** What about the CC50 ([6]; Homo sapiens) of the same compound?
**A.** > 150 µM

**Q.** With CCCCCCCCCCCCCCCCOCC(CO[C@@H]1O[C@@H](CO)[C@H](O)[C@@H](O)[C@@H]1N)OC (stereo partly drawn) [Compound 1] as the compound, how does the CC50 [7] read?
**A.** 6.5 to 12 µM

**Q.** What about the CC50 [8] of the same compound?
**A.** 7.5 µM

**Q.** And the CC50 [9]?
**A.** 11 µM

**Q.** What about the CC50 [10] of the same compound?
**A.** 12.5 µM

**Q.** What about the CC50 [11] of the same compound?
**A.** 6.5 µM

**Q.** What about the CC50 [12] of the same compound?
**A.** 12.5 µM

**Q.** What does the source list for CCCCCCCCCCCCCCCCOCC(CNC(=O)CCc1ccc(O)cc1)O[C@@H]1O[C@@H](C)[C@H](O)[C@@H](O)[C@H]1O (stereo partly drawn) [Compound 4]?
**A.** CC50 [1, 15]: 30 µM; CC50 [2, 16]: > 30 µM; CC50 [3, 15]: 21.5 µM; CC50 ([4]; Homo sapiens, MTS, concentration decreasing cell viability by 50% relative to untreated control, read-out: CC50): 23 µM; CC50 [5, 17]: ≥ 21.5 µM; CC50 [6, 15]: 25 µM

**Q.** For CCCCCCCCCCCCCCCCOCC(CN)OC1OC(CO)C(O)C(O)C1O [Compound 5, 3-Amino-1-hexadecyloxyl-2R-O-β-L-glucopyranosyl-sn-glycerol], which CC50 [1, 15] is on record?
**A.** > 30 µM

**Q.** And the CC50 [2, 16]?
**A.** > 30 µM

**Q.** And the CC50 [3, 15]?
**A.** > 30 µM

**Q.** What about the CC50 [5, 17] of the same compound?
**A.** > 30 µM

**Q.** What about the Loss of viability ([5]; depending on the cell line, up to 30 µM, 48 h) of the same compound?
**A.** 0–35%

**Q.** What about the CC50 [6, 15] of the same compound?
**A.** > 30 µM

**Q.** With CCCCCCCCCCCCCCCCOCC(CN)OC1OC(CN)C(O)C(O)C1O [Compound 6, 3-Amino-1-hexadecyloxyl-2R-(6′-amino-6′deoxy-O-α-L-mannopyranosyl)-sn-glycerol] as the compound, how does the CC50 [1, 15] read?
**A.** 17.5 µM

**Q.** What about the CC50 [2, 16] of the same compound?
**A.** 19 µM

**Q.** And the CC50 [3, 15]?
**A.** 25 µM

**Q.** And the “Times less active than glycolipid 3” value ([5]; CC50 compared with 3)?
**A.** 2- to 4

**Q.** And the CC50 [5, 17]?
**A.** 12.5 to 25 µM

**Q.** What about the CC50 [6, 15] of the same compound?
**A.** 12.5 µM

**Q.** What does the source list for CCCCCCCCCCCCCCCCOCC(CO[C@H]1O[C@H](CO)[C@@H](O)[C@H](O)[C@H]1N)OC (stereo partly drawn) [Compound 7]?
**A.** CC50 [8]: 9 µM; CC50 [10]: 13.5 µM; CC50 [11]: 9 µM; CC50 [12]: 9 µM

**Q.** Which “Cytotoxicity against the cancer cells” value [5] does the source give for OC[C@@H]1OC(O)[C@@H](O)[C@H](O)[C@H]1O (stereo partly drawn) [L-glucose] here?
**A.** not cytotoxic

**Q.** For OC[C@@H]1OC(O)[C@H](O)[C@H](O)[C@H]1O (stereo partly drawn) [L-mannose], which “Cytotoxicity against the cancer cells” value [5] is on record?
**A.** not cytotoxic

**Q.** With C[C@H](O)[C@H](O)[C@@H](O)[C@@H](O)C=O [rhamnose, L-Rhamnose] as the compound, how does the “Cytotoxicity against the cancer cells” value [5] read?
**A.** not cytotoxic

**Q.** Which results are given for Triton X-100 [reference compound]?
**A.** EthD-1 staining, positive control [13]: stained bright red; EthD-1 staining, positive control [14]: stained bright red
